Measurements from US20080009418A1, “Selective Inhibitors” (Alchemia LTD., priority 2004, published 2008).

Columns and labels:
Settings in all cases: compound at 10 μM
Human neurokinin (NK1) = molecular target: T1, Human neurokinin (NK1) (Homo sapiens, UniProt P25103); experiment: Radioligand binding, human neurokinin NK1 membranes, filtration, [125I]-Substance P
T1 construct: purchased Perkin Elmer Biosignal
Method in brief: (§1)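 Filtration binding on cloned human receptor membranes (1 Unit/well), [125I]-Substance P for NK1 and [3H]-Diprenorphine for KOP, 1 h at room temperature. Filters PEI-presoaked, washed with cold 50 mM Tris-HCl pH 7.4, counted by scintillation; percent inhibition calculated, reference ligand defining non-specific binding.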

Human μ-opioid (MOP) = molecular target: T2, Human μ-opioid (MOP) (Homo sapiens, UniProt P35372); experiment: Radioligand binding, human μ-opioid (MOP) membranes, FlashPlate, [3H]-Naloxone
T2 construct: purchased Perkin Elmer Biosignal
Method in brief: (§2)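 Cloned human receptor membranes were coated onto FlashPlate wells and incubated with radioligand and compound (added from a 0.5 mM DMSO daughter plate) for 1 hour at room temperature in the dark. Scintillation counting gave percent inhibition, with DMSO defining total and reference ligand defining non-specific binding.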

Human κ-Opioid (KOP) = molecular target: T3, Human κ-Opioid (KOP) (Homo sapiens, UniProt P41145); experiment: Radioligand binding, human κ-opioid (KOP) membranes, filtration, [3H]-Diprenorphine
T3 construct: purchased Perkin Elmer Biosignal
Method in brief: as §1

Human Melanocortin (MC4) = molecular target: T4, Human Melanocortin (MC4) (Homo sapiens, UniProt P32245); experiment: Radioligand binding, human melanocortin MC4 membranes, FlashPlate, [125I]-NDP-αMSH
T4 construct: purchased Perkin Elmer Biosignal
Method in brief: as §2

Human melanocortin (MC5) = molecular target: T5, Human melanocortin (MC5) (Homo sapiens, UniProt P33032); experiment: Radioligand binding, human melanocortin MC5 membranes, FlashPlate, [125I]-NDP-αMSH
T5 construct: purchased Perkin Elmer Biosignal
Method in brief: as §2

Human opioid (ORL1) = molecular target: T6, Human opioid (ORL1) (Homo sapiens, UniProt P41146); experiment: Radioligand binding, human opioid ORL1 membranes, FlashPlate, [125I]-Nociceptin
T6 construct: purchased Perkin Elmer Biosignal
Method in brief: as §2

[1] = molecular target: T7, Human neuropeptide Y (NPY-Y1) (Homo sapiens, UniProt P25929); experiment: Radioligand binding, human neuropeptide Y NPY-Y1 membranes, FlashPlate, [125I]-PYY
T7 construct: purchased Perkin Elmer Biosignal
T7 sequence (P25929 1-384): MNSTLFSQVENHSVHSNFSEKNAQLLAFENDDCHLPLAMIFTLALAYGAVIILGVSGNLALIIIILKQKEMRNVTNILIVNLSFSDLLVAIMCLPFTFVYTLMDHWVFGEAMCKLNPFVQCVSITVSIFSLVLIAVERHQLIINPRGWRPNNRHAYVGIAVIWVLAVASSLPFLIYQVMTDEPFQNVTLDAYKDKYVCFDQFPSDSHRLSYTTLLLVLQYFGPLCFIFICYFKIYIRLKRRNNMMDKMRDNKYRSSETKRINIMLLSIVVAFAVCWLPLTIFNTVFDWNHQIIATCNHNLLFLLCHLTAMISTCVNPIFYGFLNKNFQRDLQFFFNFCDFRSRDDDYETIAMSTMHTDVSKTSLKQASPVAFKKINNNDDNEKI
Method in brief: as §2

[2] = molecular target: T8, Human melanin-concentrating hormone (MCH1) (Homo sapiens, UniProt Q99705); experiment: Radioligand binding, human melanin-concentrating hormone MCH1 membranes, FlashPlate, [125I]-S36057
T8 construct: purchased Perkin Elmer Biosignal
Method in brief: as §2

Mouse urotensin (mUR2) = molecular target: T9, Mouse urotensin (mUR2) (Mus musculus, UniProt Q8VIH9); experiment: Radioligand binding, mouse urotensin mUR2 membranes, FlashPlate, [125I]-Urotensin II
T9 construct: purchased Perkin Elmer Biosignal
T9 sequence (Q8VIH9 1-385): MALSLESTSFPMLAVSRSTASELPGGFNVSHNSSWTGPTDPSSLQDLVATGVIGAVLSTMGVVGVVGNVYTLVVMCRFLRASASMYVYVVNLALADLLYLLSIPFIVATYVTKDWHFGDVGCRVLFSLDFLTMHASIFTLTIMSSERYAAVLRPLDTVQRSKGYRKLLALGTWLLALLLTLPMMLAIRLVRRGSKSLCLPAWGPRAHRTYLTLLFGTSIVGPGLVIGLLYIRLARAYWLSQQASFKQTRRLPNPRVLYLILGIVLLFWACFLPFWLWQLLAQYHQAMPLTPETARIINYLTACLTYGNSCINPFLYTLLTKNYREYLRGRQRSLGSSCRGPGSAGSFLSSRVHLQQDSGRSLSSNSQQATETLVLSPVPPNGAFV
Method in brief: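 Cloned mouse urotensin (mUR2) receptor membranes from Perkin Elmer Biosignal were immobilized in FlashPlate microplates using a proprietary coating. Each well got 19.5 μl buffer, then 0.5 μl of DMSO, reference ligand, or compound. Adding 5 μl of [125I]-Urotensin II, diluted to 5× final concentration in binding buffer, started binding. Plates were sealed with TopSeal-A and incubated 1 hour at room temperature in the dark. Wells were counted for 30 seconds each on a TopCount after a 60-second delay, and percentage inhibition was calculated.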

Human Melanocortin (MC3) = molecular target: T10, Human Melanocortin (MC3) (Homo sapiens, UniProt P41968); experiment: Radioligand binding, human melanocortin MC3 membranes, FlashPlate, [125I]-NDP-αMSH
T10 construct: purchased Perkin Elmer Biosignal
Method in brief: as §2

Human δ-opioid (DOP) = molecular target: T11, Human δ-opioid (DOP) (Homo sapiens, UniProt P41143); experiment: Radioligand binding, human δ-opioid (DOP) membranes, FlashPlate, [3H]-Bremazocine
T11 construct: purchased Perkin Elmer Biosignal
Method in brief: as §2

[3] = [125I]-Substance P, human NK1 membranes
[4] = [125I]-NDP-αMSH, human MC4 membranes
[5] = [125I]-NDP-αMSH, human MC5 membranes
[6] = [125I]-PYY, human NPY-Y1 membranes
[7] = [125I]-S36057, human MCH1 membranes
[8] = [125I]-Urotensin II, mouse mUR2 membranes
[9] = [125I]-NDP-αMSH, human MC3 membranes
[10] = [3H]-Bremazocine, human DOP membranes

T11 sequence (P41143 whole entry): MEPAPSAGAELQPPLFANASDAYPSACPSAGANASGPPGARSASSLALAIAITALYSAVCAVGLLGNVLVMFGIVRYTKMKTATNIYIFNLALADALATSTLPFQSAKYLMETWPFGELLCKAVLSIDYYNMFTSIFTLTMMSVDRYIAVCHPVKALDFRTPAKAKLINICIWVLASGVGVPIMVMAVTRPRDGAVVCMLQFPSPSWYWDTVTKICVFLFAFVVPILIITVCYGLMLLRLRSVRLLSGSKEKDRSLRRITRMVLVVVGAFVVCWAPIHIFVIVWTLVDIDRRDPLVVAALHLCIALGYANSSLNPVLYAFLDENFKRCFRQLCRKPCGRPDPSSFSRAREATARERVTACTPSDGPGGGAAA
T3 sequence (P41145 whole entry): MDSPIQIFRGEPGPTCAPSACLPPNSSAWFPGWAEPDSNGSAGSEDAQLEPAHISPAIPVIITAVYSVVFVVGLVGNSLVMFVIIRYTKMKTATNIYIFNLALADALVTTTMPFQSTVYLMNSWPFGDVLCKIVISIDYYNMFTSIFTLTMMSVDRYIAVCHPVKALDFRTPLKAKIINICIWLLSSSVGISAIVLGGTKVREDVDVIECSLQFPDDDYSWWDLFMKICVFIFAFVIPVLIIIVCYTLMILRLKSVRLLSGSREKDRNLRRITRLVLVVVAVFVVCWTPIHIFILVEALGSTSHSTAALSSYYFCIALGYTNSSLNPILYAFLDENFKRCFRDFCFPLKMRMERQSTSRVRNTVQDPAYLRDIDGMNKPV
T5 sequence (P33032 whole entry): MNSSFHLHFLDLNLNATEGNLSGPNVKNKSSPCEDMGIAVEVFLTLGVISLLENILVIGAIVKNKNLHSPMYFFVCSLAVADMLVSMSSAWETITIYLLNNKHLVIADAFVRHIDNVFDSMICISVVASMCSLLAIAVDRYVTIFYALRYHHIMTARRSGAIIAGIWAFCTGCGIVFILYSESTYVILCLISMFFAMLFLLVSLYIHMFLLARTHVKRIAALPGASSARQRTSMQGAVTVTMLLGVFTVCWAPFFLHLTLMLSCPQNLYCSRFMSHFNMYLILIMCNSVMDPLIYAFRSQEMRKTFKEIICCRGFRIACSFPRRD
T8 sequence (Q99705 whole entry): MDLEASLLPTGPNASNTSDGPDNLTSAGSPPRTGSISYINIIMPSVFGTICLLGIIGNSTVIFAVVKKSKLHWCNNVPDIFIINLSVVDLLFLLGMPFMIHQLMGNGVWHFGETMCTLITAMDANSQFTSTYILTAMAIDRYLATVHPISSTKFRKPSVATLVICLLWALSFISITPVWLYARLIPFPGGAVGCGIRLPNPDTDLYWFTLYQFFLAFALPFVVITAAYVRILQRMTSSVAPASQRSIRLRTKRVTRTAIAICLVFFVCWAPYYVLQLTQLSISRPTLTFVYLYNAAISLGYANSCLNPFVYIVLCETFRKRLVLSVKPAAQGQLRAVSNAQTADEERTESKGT
T6 sequence (P41146 whole entry): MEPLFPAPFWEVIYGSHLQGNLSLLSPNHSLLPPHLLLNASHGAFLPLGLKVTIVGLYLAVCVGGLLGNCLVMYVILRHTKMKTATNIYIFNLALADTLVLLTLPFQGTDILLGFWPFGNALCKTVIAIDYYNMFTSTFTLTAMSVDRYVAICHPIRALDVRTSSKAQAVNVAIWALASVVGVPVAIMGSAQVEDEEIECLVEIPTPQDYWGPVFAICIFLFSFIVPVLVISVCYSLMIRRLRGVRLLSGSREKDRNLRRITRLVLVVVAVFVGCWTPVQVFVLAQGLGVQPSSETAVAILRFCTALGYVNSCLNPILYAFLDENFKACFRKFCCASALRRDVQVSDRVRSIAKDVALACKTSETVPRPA
T2 sequence (P35372 whole entry): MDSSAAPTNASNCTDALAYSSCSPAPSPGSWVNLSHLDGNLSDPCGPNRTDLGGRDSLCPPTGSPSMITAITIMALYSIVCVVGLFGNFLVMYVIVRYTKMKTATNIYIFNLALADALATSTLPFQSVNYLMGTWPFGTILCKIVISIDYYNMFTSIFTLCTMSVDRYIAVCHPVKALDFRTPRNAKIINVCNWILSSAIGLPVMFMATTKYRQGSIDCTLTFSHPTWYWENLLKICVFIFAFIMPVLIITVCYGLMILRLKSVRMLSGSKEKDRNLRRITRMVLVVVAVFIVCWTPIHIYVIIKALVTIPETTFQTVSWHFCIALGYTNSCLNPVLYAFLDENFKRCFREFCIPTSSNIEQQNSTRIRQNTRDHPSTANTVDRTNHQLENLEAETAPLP
T10 sequence (P41968 whole entry): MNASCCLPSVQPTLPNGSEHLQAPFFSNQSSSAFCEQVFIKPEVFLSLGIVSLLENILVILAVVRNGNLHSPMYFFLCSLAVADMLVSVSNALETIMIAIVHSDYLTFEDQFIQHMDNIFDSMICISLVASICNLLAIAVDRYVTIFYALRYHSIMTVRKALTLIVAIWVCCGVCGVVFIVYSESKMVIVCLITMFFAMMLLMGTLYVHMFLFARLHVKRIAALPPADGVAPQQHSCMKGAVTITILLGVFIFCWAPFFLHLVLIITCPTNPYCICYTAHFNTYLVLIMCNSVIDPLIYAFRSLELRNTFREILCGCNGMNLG
T1 sequence (P25103 whole entry): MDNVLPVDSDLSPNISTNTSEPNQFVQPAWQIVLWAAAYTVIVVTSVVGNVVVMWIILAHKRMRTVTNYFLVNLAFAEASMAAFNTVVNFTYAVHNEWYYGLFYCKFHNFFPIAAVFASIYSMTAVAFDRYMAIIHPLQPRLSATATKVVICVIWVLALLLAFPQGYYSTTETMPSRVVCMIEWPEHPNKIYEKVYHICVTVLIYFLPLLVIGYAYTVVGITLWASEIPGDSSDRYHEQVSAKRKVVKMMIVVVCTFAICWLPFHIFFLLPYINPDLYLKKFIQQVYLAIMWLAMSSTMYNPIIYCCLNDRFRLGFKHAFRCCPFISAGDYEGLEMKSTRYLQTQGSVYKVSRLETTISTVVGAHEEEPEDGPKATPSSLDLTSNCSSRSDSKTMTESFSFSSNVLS
T4 sequence (P32245 whole entry): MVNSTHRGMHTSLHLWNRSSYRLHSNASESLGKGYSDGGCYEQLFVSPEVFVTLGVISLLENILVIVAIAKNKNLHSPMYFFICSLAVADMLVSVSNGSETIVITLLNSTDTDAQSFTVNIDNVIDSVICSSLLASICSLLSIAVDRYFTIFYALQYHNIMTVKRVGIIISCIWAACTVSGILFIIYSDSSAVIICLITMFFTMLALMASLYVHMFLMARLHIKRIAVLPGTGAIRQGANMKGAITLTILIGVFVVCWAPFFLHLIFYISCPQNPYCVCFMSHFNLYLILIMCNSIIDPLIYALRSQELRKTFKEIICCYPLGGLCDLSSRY

## N=C(N)NCCC(=O)NC1C(OCc2ccc(-c3ccccc3)cc2)OC(COCc2ccc3ccccc3c2)C(O)C1OCc1ccc(-c2ccccc2)cc1 (stereo not shown) [compound 414]
Human neurokinin (NK1); [3]
  A8: inhibition of radioligand binding: + (“+” indicates greater than 50% inhibition at 10 μM)
Human μ-opioid (MOP); [3H]-Naloxone, human MOP membranes
  A7: inhibition of radioligand binding: − (“−” indicates less than 50% inhibition at 10 μM)
Human κ-Opioid (KOP); [3H]-Diprenorphine, human KOP membranes
  A2: inhibition of radioligand binding: − (“−” indicates less than 50% inhibition at 10 μM)
Human Melanocortin (MC4); [4]
  A4: inhibition of radioligand binding: − (“−” indicates less than 50% inhibition at 10 μM)
Human melanocortin (MC5); [5]
  A5: inhibition of radioligand binding: + (“+” indicates greater than 50% inhibition at 10 μM)
Human opioid (ORL1); [125I]-Nociceptin, human ORL1 membranes
  A10: inhibition of radioligand binding: − (“−” indicates less than 50% inhibition at 10 μM)
[1]; [6]
  A9: inhibition of radioligand binding: − (“−” indicates less than 50% inhibition at 10 μM)
[2]; [7]
  A6: inhibition of radioligand binding: − (“−” indicates less than 50% inhibition at 10 μM)
Mouse urotensin (mUR2); [8]
  A11: inhibition of radioligand binding: − (“−” indicates less than 50% inhibition at 10 μM)
Human Melanocortin (MC3); [9]
  A3: inhibition of radioligand binding: − (“−” indicates less than 50% inhibition at 10 μM)
Human δ-opioid (DOP); [10]
  A1: inhibition of radioligand binding: − (“−” indicates less than 50% inhibition at 10 μM)

## COCC1OC(OCc2ccc3ccccc3c2)C(NC(=O)CCNC(=N)N)C(OCc2ccc3ccccc3c2)C1O (stereo not shown) [compound 547]
Human neurokinin (NK1); [125I]-Substance P
  A8: inhibition of radioligand binding, human neurokinin (NK1): + (“+” indicates greater than 50% inhibition at 10 μM)
Human μ-opioid (MOP); [3H]-Naloxone
  A7: inhibition of radioligand binding, human μ-opioid (MOP): − (“−” indicates less than 50% inhibition at 10 μM)
Human κ-Opioid (KOP); [3H]-Diprenorphine
  A2: inhibition of radioligand binding, human κ-opioid (KOP): − (“−” indicates less than 50% inhibition at 10 μM)
Human Melanocortin (MC4); [125I]-NDP-αMSH
  A4: inhibition of radioligand binding, human melanocortin (MC4): − (“−” indicates less than 50% inhibition at 10 μM)
Human melanocortin (MC5); [125I]-NDP-αMSH
  A5: inhibition of radioligand binding, human melanocortin (MC5): − (“−” indicates less than 50% inhibition at 10 μM)
Human opioid (ORL1); [125I]-Nociceptin
  A10: inhibition of radioligand binding, human opioid (ORL1): − (“−” indicates less than 50% inhibition at 10 μM)
[1]; [125I]-PYY
  A9: inhibition of radioligand binding, human neuropeptide Y (NPY-Y1): − (“−” indicates less than 50% inhibition at 10 μM)
[2]; [125I]-S36057
  A6: inhibition of radioligand binding, human melanin-concentrating hormone (MCH1): + (“+” indicates greater than 50% inhibition at 10 μM)
Mouse urotensin (mUR2); [125I]-Urotensin II
  A11: inhibition of radioligand binding, mouse urotensin (mUR2): − (“−” indicates less than 50% inhibition at 10 μM)
Human Melanocortin (MC3); [125I]-NDP-αMSH
  A3: inhibition of radioligand binding, human melanocortin (MC3): − (“−” indicates less than 50% inhibition at 10 μM)
Human δ-opioid (DOP); [3H]-Bremazocine
  A1: inhibition of radioligand binding, human δ-opioid (DOP): − (“−” indicates less than 50% inhibition at 10 μM)

## COC[C@H]1OC(OCc2ccc3ccccc3c2)[C@H](NC(=O)CCNC(=N)N)[C@@H](OCc2ccc3ccccc3c2)[C@@H]1O (stereo partly shown) [compound 18]
Human neurokinin (NK1); human neurokinin NK1 membranes
  A8 radioligand binding inhibition: + (“+” indicates greater than 50% inhibition at 10 μM)
Human μ-opioid (MOP); human μ-opioid (MOP) membranes
  A7 radioligand binding inhibition: + (“+” indicates greater than 50% inhibition at 10 μM)
Human κ-Opioid (KOP); human κ-opioid (KOP) membranes
  A2 radioligand binding inhibition: − (“−” indicates less than 50% inhibition at 10 μM)
Human Melanocortin (MC4); human melanocortin MC4 membranes
  A4 radioligand binding inhibition: − (“−” indicates less than 50% inhibition at 10 μM)
Human melanocortin (MC5); human melanocortin MC5 membranes
  A5 radioligand binding inhibition: + (“+” indicates greater than 50% inhibition at 10 μM)
Human opioid (ORL1); human ORL1 membranes
  A10 radioligand binding inhibition: − (“−” indicates less than 50% inhibition at 10 μM)
[1]; human NPY-Y1 membranes
  A9 radioligand binding inhibition: − (“−” indicates less than 50% inhibition at 10 μM)
[2]; human MCH1 membranes
  A6 radioligand binding inhibition: + (“+” indicates greater than 50% inhibition at 10 μM)
Mouse urotensin (mUR2); mouse urotensin mUR2 membranes
  A11 radioligand binding inhibition: − (“−” indicates less than 50% inhibition at 10 μM)
Human Melanocortin (MC3); human melanocortin MC3 membranes
  A3 radioligand binding inhibition: − (“−” indicates less than 50% inhibition at 10 μM)
Human δ-opioid (DOP); human δ-opioid (DOP) membranes
  A1 radioligand binding inhibition: − (“−” indicates less than 50% inhibition at 10 μM)

## NCCCC(=O)NC1C(OCc2ccc3ccccc3c2)OC(COCc2ccc3ccccc3c2)C(O)C1OCc1ccc(Cl)cc1 (stereo not shown) [compound 390]
Human neurokinin (NK1); [3]
  A8: inhibition of radioligand binding: + (“+” indicates greater than 50% inhibition at 10 μM)
Human μ-opioid (MOP); [3H]-Naloxone, human MOP membranes, 10 µM
  A7: inhibition of radioligand binding: − (“−” indicates less than 50% inhibition at 10 μM)
Human κ-Opioid (KOP); [3H]-Diprenorphine, human KOP membranes, 10 µM
  A2: inhibition of radioligand binding: − (“−” indicates less than 50% inhibition at 10 μM)
Human Melanocortin (MC4); [4]
  A4: inhibition of radioligand binding: + (“+” indicates greater than 50% inhibition at 10 μM)
Human melanocortin (MC5); [5]
  A5: inhibition of radioligand binding: + (“+” indicates greater than 50% inhibition at 10 μM)
Human opioid (ORL1); [125I]-Nociceptin, human ORL1 membranes, 10 µM
  A10: inhibition of radioligand binding: + (“+” indicates greater than 50% inhibition at 10 μM)
[1]; [6]
  A9: inhibition of radioligand binding: − (“−” indicates less than 50% inhibition at 10 μM)
[2]; [7]
  A6: inhibition of radioligand binding: + (“+” indicates greater than 50% inhibition at 10 μM)
Mouse urotensin (mUR2); [8]
  A11: inhibition of radioligand binding: − (“−” indicates less than 50% inhibition at 10 μM)
Human Melanocortin (MC3); [9]
  A3: inhibition of radioligand binding: + (“+” indicates greater than 50% inhibition at 10 μM)
Human δ-opioid (DOP); [10]
  A1: inhibition of radioligand binding: − (“−” indicates less than 50% inhibition at 10 μM)

## COCC1OC(OCc2ccc(Cl)cc2)C(NC(=O)CCCN)C(OCc2ccc(Cl)cc2)C1O (stereo not shown) [compound 203]
Human neurokinin (NK1); [125I]-Substance P, filtration
  A8: inhibition of radioligand binding: + (“+” indicates greater than 50% inhibition at 10 μM)
Human μ-opioid (MOP); [3H]-Naloxone, FlashPlate
  A7: inhibition of radioligand binding: − (“−” indicates less than 50% inhibition at 10 μM)
Human κ-Opioid (KOP); [3H]-Diprenorphine, filtration
  A2: inhibition of radioligand binding: − (“−” indicates less than 50% inhibition at 10 μM)
Human Melanocortin (MC4); [125I]-NDP-αMSH, FlashPlate
  A4: inhibition of radioligand binding: − (“−” indicates less than 50% inhibition at 10 μM)
Human melanocortin (MC5); [125I]-NDP-αMSH, FlashPlate
  A5: inhibition of radioligand binding: + (“+” indicates greater than 50% inhibition at 10 μM)
Human opioid (ORL1); [125I]-Nociceptin, FlashPlate
  A10: inhibition of radioligand binding: − (“−” indicates less than 50% inhibition at 10 μM)
[1]; [125I]-PYY, FlashPlate
  A9: inhibition of radioligand binding: − (“−” indicates less than 50% inhibition at 10 μM)
[2]; [125I]-S36057, FlashPlate
  A6: inhibition of radioligand binding: − (“−” indicates less than 50% inhibition at 10 μM)
Mouse urotensin (mUR2); [125I]-Urotensin II, FlashPlate
  A11: inhibition of radioligand binding: − (“−” indicates less than 50% inhibition at 10 μM)
Human Melanocortin (MC3); [125I]-NDP-αMSH, FlashPlate
  A3: inhibition of radioligand binding: − (“−” indicates less than 50% inhibition at 10 μM)
Human δ-opioid (DOP); [3H]-Bremazocine, FlashPlate
  A1: inhibition of radioligand binding: − (“−” indicates less than 50% inhibition at 10 μM)
